Data on 12 molecules can be found in ChEMBL document CHEMBL5465560, “Selectivity Literature for EUbOPEN Chemogenomic Library” (2024).

The target of experiment [1] is T1, Serine/threonine-protein kinase pim-1 (Homo sapiens, UniProt P11309). The experiment is described as follows: Selectivity interaction (Ambit KINOMEscan and KiNATiv profiling in Jurkat cells) EUB0000090b PIM1. It is filed as cell-based. Conditions: at 1 µM.
Experiment [2] deals with Serine/threonine-protein kinase 32A (Homo sapiens) (UniProt Q8WU08). In words: Selectivity interaction (KinomeScan (DiscoverX)) EUB0000607a STK32A. To be noted: at 10 µM.
Chain of Serine/threonine-protein kinase 32A (Homo sapiens) (Q8WU08 whole entry): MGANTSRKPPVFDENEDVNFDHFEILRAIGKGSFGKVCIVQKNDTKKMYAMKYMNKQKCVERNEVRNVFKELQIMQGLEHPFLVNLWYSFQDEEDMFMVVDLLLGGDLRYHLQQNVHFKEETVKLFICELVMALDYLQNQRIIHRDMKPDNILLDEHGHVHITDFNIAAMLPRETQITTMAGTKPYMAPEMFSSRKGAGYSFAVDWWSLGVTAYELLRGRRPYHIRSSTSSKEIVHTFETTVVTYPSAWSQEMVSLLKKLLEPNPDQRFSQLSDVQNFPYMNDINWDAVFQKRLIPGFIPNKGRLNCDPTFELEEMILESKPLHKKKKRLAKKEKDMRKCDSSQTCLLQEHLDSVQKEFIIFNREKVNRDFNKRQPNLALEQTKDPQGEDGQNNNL
The target of experiment [3] is Serine/threonine-protein kinase PLK1 (Homo sapiens, UniProt P53350). The experiment is described as follows: Selectivity interaction (SelectScreen profiling (Invitrogen)) EUB0000607a PLK1. Conditions: at 2 µM.
Chain of Serine/threonine-protein kinase PLK1 (P53350 whole entry): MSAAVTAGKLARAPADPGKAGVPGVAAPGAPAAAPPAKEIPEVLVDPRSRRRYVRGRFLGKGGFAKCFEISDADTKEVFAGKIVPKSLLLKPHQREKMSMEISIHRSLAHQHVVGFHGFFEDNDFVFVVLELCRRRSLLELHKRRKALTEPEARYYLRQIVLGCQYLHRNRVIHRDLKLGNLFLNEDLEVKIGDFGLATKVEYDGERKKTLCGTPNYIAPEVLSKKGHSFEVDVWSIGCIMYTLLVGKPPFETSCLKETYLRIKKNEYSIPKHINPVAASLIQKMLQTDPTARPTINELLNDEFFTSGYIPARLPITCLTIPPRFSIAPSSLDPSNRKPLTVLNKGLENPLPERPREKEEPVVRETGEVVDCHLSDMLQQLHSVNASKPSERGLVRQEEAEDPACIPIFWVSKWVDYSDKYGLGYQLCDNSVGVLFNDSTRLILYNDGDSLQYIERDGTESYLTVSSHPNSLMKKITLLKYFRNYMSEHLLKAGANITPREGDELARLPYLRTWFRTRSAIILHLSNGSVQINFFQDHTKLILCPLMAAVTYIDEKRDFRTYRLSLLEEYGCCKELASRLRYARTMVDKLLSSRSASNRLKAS
In experiment [4] the target is T1, Serine/threonine-protein kinase pim-1. To be noted: at 10 µM.
Experiment [5] has as its system Receptor-type tyrosine-protein kinase FLT3 (Homo sapiens), P36888 [UNDEFINED MUTATION]. To be noted: at 10 µM.
Experiment [6] concerns the target T2, Dual specificity protein kinase TTK (Homo sapiens) (UniProt P33981).
T2 sequence (whole entry): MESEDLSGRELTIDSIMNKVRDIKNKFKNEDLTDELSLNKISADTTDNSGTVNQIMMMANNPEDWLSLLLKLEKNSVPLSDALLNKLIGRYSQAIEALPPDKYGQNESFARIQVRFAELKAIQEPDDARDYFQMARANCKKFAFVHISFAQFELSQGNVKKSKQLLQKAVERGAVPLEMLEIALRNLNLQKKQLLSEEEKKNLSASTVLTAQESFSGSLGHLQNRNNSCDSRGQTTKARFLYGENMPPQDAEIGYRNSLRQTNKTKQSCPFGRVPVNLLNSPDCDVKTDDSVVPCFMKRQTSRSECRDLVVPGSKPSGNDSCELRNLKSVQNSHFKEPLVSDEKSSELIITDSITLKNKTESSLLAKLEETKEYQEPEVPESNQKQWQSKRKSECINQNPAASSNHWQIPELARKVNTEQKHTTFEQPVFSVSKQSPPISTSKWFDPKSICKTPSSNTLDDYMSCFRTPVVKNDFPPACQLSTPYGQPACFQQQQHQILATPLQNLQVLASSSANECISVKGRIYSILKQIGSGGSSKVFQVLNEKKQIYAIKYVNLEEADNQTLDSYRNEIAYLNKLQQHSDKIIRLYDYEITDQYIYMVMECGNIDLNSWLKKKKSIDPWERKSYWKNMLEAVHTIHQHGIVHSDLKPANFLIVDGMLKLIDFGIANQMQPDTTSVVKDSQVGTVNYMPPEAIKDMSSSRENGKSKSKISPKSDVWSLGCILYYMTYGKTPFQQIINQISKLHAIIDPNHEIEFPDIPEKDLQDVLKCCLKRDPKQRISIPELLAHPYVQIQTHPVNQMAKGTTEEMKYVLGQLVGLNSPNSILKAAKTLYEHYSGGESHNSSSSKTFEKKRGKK
To be noted: at 10 µM.

The target of experiment [7] is Bone morphogenetic protein receptor type-1B (Homo sapiens, UniProt O00238). The experiment is described as follows: Selectivity interaction (KinomeScan (DiscoverX)) EUB0000666a BMPR1B. To be noted: at 10 µM.
Chain of Bone morphogenetic protein receptor type-1B (O00238 whole entry): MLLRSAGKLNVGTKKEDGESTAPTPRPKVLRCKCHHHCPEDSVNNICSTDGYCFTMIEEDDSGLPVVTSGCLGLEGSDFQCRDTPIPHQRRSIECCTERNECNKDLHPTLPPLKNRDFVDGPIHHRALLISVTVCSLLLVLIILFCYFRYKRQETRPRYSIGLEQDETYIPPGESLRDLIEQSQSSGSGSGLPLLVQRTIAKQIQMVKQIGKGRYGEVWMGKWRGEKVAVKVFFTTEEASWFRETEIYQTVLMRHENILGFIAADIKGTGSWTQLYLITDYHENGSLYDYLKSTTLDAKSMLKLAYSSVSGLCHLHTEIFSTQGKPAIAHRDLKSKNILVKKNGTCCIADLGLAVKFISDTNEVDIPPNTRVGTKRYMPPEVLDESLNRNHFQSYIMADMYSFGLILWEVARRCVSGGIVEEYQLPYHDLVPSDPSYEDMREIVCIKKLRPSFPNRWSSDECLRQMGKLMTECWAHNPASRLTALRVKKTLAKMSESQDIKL
Experiment [8] addresses Muscarinic acetylcholine receptor M3 (Homo sapiens, UniProt P20309). The experiment is described as follows: Selectivity interaction (GPCR panel (PDSP screen)) EUB0000311b CHRM3. To be noted: at 10 µM.
The target in experiment [9] is Serine/threonine-protein kinase 38 (Homo sapiens) (UniProt Q15208). The experiment is described as follows: Selectivity interaction (KinomeScan (DiscoverX)) EUB0001079a STK38. To be noted: at 1 µM.
Chain of Serine/threonine-protein kinase 38 (Homo sapiens) (Q15208 2-465 limits assumed): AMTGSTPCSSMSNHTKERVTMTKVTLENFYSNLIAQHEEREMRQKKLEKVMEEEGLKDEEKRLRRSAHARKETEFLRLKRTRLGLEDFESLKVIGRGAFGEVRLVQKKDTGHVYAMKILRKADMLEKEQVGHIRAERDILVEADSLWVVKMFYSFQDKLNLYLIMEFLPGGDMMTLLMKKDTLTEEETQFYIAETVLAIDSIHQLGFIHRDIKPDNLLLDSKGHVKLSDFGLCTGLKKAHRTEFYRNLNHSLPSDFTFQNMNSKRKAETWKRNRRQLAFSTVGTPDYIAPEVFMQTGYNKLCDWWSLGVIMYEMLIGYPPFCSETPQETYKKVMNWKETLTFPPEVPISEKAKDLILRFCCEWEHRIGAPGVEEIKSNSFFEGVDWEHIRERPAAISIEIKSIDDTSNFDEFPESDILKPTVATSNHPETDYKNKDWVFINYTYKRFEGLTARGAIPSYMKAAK
The target of experiment [10] is Serine/threonine-protein kinase PAK 4 (Homo sapiens, UniProt O96013). In words: Selectivity interaction (Kinase panel (literature)) EUB0001199aCl PAK4. To be noted: at 1 µM.
Chain of Serine/threonine-protein kinase PAK 4 (O96013 whole entry, looked up): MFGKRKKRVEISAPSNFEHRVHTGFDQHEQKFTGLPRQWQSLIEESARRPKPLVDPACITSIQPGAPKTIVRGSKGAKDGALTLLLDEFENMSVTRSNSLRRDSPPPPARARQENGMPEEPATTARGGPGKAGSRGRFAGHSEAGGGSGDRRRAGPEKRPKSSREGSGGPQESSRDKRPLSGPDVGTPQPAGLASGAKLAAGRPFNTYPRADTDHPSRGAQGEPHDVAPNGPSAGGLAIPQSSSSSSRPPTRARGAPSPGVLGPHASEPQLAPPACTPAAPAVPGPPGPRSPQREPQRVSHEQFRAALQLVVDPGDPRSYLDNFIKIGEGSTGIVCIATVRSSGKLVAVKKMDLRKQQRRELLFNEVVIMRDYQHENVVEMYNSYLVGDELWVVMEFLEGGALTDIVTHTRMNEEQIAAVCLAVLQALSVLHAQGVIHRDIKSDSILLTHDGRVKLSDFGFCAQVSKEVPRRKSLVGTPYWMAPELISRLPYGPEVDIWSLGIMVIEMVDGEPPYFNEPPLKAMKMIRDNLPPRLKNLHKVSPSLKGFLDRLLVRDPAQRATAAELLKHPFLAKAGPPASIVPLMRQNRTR
For another experiment, the target named is Histamine H1 receptor (Homo sapiens, UniProt P35367). The experiment is described as follows: Selectivity interaction (Histamine H1 receptor assay, human recombinant ) EUB0000877a HRH1.
Experiment [11] concerns the target MAP/microtubule affinity-regulating kinase 3 (Homo sapiens) (UniProt P27448). In words: Selectivity interaction (ActivX KiNativ screen (kinase selectivity in THP-1 cell lysates)) EUB0000639a MARK3. It is filed as subcellular. Conditions: lysate.
The target in experiment [12] is T3, Membrane-associated tyrosine- and threonine-specific cdc2-inhibitory kinase (Homo sapiens) (UniProt Q99640).
T3 sequence (whole entry): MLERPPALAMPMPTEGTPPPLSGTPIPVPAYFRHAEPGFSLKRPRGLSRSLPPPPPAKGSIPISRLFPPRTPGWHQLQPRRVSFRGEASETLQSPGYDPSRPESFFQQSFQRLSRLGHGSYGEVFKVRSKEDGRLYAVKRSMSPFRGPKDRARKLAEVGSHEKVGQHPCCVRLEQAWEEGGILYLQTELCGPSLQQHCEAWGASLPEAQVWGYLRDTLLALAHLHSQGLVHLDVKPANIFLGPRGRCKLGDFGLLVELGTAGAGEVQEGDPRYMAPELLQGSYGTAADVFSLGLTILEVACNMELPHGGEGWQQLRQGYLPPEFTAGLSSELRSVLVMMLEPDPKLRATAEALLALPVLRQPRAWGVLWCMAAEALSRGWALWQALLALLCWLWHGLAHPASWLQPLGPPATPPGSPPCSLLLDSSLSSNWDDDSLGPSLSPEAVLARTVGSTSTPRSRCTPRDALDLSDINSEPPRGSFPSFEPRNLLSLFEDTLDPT
To be noted: at 10 µM.

Experiment [13] deals with Activin receptor type-1-like (Homo sapiens) (UniProt P37023). In words: Selectivity interaction (KinomeScan (DiscoverX)) EUB0001049a ACVRL1. To be noted: at 1 µM.
Chain of Activin receptor type-1-like (Homo sapiens) (P37023 whole entry): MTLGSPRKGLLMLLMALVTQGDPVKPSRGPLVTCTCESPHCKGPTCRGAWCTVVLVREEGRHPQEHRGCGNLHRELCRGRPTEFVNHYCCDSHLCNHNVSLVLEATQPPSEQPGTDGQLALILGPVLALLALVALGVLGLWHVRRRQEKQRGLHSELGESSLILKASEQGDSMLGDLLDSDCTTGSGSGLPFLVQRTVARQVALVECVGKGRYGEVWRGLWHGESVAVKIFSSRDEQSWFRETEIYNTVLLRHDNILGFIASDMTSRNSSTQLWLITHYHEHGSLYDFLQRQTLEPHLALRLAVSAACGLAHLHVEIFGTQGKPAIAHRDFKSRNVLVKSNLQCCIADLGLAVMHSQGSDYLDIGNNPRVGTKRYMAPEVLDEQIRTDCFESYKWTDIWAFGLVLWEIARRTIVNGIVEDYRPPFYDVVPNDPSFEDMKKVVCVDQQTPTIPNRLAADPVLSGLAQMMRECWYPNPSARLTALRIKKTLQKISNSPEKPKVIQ
The target in experiment [14] is RAC-beta serine/threonine-protein kinase (Homo sapiens) (UniProt P31751). In words: Selectivity interaction (Upstate Kinase Profiler service (Millipore)) EUB0000056c AKT2. To be noted: at 1 µM.

Chain of MAP/microtubule affinity-regulating kinase 3 (Homo sapiens) (P27448 whole entry, looked up): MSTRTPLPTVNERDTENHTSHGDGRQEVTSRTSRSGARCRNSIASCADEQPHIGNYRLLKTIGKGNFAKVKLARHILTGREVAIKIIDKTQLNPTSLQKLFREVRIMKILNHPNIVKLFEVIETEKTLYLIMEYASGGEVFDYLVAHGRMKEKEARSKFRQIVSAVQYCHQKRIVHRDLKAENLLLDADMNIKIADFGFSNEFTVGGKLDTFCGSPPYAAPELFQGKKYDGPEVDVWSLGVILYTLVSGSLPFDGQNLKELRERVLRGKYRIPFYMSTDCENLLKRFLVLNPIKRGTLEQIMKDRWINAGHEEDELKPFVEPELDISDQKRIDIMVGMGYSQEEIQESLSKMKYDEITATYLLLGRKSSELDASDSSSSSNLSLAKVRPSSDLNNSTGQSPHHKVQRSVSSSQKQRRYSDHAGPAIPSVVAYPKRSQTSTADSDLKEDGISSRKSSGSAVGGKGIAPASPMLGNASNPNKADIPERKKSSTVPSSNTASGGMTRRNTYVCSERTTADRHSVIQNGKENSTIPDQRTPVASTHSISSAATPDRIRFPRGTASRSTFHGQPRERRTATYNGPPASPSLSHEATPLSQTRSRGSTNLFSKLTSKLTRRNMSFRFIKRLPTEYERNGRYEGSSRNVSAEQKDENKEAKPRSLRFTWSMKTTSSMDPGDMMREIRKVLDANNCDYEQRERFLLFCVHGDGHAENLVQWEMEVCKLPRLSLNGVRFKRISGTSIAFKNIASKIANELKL
T1 sequence (P11309 whole entry, looked up): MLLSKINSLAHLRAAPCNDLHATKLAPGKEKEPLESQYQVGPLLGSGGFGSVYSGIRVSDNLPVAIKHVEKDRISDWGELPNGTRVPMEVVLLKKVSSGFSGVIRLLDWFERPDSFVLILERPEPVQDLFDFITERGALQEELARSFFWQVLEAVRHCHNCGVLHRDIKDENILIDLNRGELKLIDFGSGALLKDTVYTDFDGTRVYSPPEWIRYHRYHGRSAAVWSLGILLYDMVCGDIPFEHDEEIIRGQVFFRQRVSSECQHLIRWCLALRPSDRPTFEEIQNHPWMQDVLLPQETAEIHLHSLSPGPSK
Chain of Muscarinic acetylcholine receptor M3 (P20309 whole entry, looked up): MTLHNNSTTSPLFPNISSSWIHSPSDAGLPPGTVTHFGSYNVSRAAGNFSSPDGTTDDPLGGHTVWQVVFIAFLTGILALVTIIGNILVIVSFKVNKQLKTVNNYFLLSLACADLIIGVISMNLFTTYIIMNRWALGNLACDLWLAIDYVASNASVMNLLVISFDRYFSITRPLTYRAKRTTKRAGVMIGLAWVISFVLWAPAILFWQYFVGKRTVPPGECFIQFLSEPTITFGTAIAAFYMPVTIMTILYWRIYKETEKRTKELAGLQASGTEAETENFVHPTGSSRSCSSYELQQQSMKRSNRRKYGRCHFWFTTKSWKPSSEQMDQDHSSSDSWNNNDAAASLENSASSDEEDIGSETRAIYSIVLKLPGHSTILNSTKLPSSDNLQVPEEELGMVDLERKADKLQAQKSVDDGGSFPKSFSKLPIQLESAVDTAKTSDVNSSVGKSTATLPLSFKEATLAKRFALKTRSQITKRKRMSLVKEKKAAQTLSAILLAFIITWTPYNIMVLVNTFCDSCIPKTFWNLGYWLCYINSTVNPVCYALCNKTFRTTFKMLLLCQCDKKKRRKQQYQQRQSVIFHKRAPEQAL

As for `CN(C)C/C=C/C(=O)Nc1ccc(C(=O)N2CCCC(Nc3ncc(Cl)c(-c4c[nH]c5ccccc45)n3)C2)cc1` (centres undefined), the % of control in [1] was found to be 100%. In turn, `CNC(=O)Nc1ccc(-c2nc(N3CC4CCC(C3)O4)c3cnn(C4CCC5(CC4)OCCO5)c3n2)cc1` showed a % of control in [2] of 99%. For the same molecule, the % of inhibition in experiment [3] is -4%. `Cc1cc([C@@H](C)Nc2ccccc2C(=O)O)c2nc(N3CCOCC3)cc(=O)n2c1` [AZD-6482]: the figures for the % of control in experiment [4], in [5] and in experiment [6] were 100%, 53% and 100%, respectively.

`O=C(NOC[C@H](O)CO)c1ccc(F)c(F)c1Nc1ccc(I)cc1F` returned a % of control in [7] of 100%. Take `CCc1ccccc1C(=O)Nc1n[nH]c2c(C)c(F)c(C3C(C#N)=C(C)N(C)C(C)=C3C#N)cc12` [BAY-3827]: in [8], the % of inhibition came to 22.5%. Take `Nc1cnc(N2CCc3cc(S(=O)(=O)Nc4c(F)cc(Cl)cc4F)cc(N4CCCC4=O)c32)nc1` [TP-020n]: in experiment [9], the % of control was 99%. For the molecule `CN1Cc2nccc(-c3cn(C)nc3-c3ccc(F)cc3)c2C1=O`, the % of inhibition in experiment [10] was found to be 7%.

The IC50 is the concentration that gives 50% inhibition. Turning to `CCC(=O)N1CC[C@H](Nc2ncnc3c2CN(c2cnc(OC)c(C(F)(F)F)c2)CC3)C1` [LENIOLISIB], at Histamine H1 receptor, the IC50 is more than 30 µM.

For the molecule `CC[C@@H]1[C@H](F)C(=O)N[C@@H]1COc1nccc2cc(C(N)=O)c(OC)cc12` [ZIMLOVISERTIB], the % of inhibition in experiment [11] (at 0.01 µM) was 10%; in experiment [11] (at 0.04 µM), 17.3%; in [11] (at 0.2 µM), 11.9%; in experiment [11] (at 1 µM), 26.3%; in experiment [11] (at 5 µM) it was 51.4%.

In turn, `CCN(CC)CCCCNc1ncc2cc(-c3cc(OC)cc(OC)c3)c(NC(=O)NC(C)(C)C)nc2n1` showed a % of control in [12] of 100%.

Molecule `COc1cc(Nc2nc(C)cc(-c3cnn4nc(OC)ccc34)n2)cc(C(F)(F)F)c1` showed a % of control in experiment [13] of 89%. With `Cc1ccc(-c2ccc3c(ccc4sc5c(c43)NC[C@@H](C)NC5=O)n2)cn1`, the % of inhibition in experiment [14] is -9%.
